In one experiment the target is EED (1-441)-His protein (Homo sapiens (Human), UniProt O75530). In words: EED-H3K27Me3 peptide competition binding assay by AlphaScreen. The following applies: EED Alphascreen binding Qualified assay. On the procedure:
Then 4 μL of detection beads mix was added to the plate and incubate in the dark at the rt for 1 h. The final concentration of donor and acceptor beads was 10 μg/mL for each. […] The data were then fit to a dose response equation using the program Helios (Novartis) to get the IC50 values. […] Sebaugh, J. […] Each compound was counter screened to determine if it interfered with the AlphaScreen beads. […] The plates were then incubated for 1 h at rt in dark before being read on EnVison.

Experiment [1] has as its target wild type PRC2 (wtPRC2) complex (Homo sapiens (Human), UniProt O75530). Briefly: EED LC-MS assay. The format is biochemical. The settings on record: EED LC-MS Qualified assay; read-out: (b) IC50. How it is done:
EED LC-MS Assay Representative compounds of the present invention were serially and separately diluted 3-fold in DMSO to obtain a total of eight or twelve concentrations. […] A 6 μL solution of 3 μM of the peptide substrate H3K27Me0 (histone H3[21-44]-biotin) in reaction buffer was added to initiate each reaction. […] The data were then fit to a dose response equation using the program Helios to get the IC50 values of the test compound.

In experiment [2] the test system is H3K27 methylation in G401 cell. In words: ELISA (H3K27 methylation) assay. Format: cell-based. The following applies: Homo sapiens, G-401, ELISA Qualified assay, 48 h, read-out: (c) IC50. On the procedure:
ELISA (H3K27 Methylation) Assay
Representative compounds of the present invention were serially and separately diluted 3-fold in DMSO to obtain a total of eight or twelve concentrations. Then the compounds were added to G401 cell cultured in 384-well plate at 1:500 dilution to obtain the highest concentration of 20 μM. The cells were further cultured for 48 h before ELISA procedure.
ELISA protocol: Cell lysates were transferred to the wells of a 384-well plate and the final volume was adjusted to 50 μL per well with PBS. The plate was sealed, centrifuged at 2,000 rpm for 2 min and incubated at 4° C. for about 16 h. The plate was washed with TBST buffer (1×TBS (10×TBS: 24.2 g Tris (Sigma, T6066), 80 g NaCl (Sigma, S3014) to 1 L of water and adjust pH to 7.6 with HCl) with 0.1% Tween-20). Blocking buffer (TBST, 5% BSA; 50 μL per well) was added and the plate was incubated for 1 h at rt. The blocking buffer was removed and primary antibody was added (30 μL per well). […] The primary antibody was incubated in the plate at rt for 1 h. The wells were washed with TBST and incubated with secondary antibody for 1 h at rt. […] After 1 h of incubation at rt, the wells were washed with TBST. […] The signal was read using a PerkinElmer Envision Reader. The H3K27 methylation readouts were normalized using H3 signal and then percentage inhibition was calculated against the samples treated with DMSO. The data were then fit to a dose response curve using the program Helios to get the IC50 values of the test compound.
A general note: An ELISA detects its analyte on a solid surface through an enzyme-linked reagent.

Structures are written as SMILES.

Sequence of EED (1-441)-His protein (O75530 whole entry): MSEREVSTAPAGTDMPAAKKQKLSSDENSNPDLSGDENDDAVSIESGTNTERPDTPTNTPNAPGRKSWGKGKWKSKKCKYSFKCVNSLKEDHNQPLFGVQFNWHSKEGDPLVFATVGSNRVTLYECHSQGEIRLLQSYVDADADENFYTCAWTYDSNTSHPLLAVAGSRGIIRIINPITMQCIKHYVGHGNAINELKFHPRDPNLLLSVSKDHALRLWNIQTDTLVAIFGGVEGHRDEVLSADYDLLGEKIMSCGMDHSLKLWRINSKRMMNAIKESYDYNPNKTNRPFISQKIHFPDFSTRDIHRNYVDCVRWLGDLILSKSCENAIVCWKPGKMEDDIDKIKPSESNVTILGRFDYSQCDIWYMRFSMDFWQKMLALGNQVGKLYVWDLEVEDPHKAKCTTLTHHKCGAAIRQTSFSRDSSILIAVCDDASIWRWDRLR
Sequence of wild type PRC2 (wtPRC2) complex (O75530 whole entry): as above
Sequence of wild type PRC2 (wtPRC2) complex (Q15910 whole entry partner): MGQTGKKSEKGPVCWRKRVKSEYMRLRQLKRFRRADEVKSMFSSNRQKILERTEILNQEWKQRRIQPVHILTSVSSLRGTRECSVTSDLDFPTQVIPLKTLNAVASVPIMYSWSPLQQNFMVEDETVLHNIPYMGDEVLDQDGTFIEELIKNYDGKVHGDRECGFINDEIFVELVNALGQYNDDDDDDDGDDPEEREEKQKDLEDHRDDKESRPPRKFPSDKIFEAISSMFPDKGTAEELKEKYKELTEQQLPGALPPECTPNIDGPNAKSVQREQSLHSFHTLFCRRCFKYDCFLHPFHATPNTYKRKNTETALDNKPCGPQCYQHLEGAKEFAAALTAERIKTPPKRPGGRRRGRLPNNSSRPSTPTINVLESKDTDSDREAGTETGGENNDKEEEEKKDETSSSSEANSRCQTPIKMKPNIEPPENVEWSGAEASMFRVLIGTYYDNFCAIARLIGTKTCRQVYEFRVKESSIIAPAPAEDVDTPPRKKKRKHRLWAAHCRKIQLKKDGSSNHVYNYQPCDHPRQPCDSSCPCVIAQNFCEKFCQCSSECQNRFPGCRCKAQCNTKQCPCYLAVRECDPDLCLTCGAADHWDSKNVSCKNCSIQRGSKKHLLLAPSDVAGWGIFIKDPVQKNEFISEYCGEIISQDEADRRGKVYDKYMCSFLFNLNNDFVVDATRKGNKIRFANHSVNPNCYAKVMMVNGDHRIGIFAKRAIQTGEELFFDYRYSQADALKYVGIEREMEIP
Sequence of wild type PRC2 (wtPRC2) complex (Q15022 whole entry partner): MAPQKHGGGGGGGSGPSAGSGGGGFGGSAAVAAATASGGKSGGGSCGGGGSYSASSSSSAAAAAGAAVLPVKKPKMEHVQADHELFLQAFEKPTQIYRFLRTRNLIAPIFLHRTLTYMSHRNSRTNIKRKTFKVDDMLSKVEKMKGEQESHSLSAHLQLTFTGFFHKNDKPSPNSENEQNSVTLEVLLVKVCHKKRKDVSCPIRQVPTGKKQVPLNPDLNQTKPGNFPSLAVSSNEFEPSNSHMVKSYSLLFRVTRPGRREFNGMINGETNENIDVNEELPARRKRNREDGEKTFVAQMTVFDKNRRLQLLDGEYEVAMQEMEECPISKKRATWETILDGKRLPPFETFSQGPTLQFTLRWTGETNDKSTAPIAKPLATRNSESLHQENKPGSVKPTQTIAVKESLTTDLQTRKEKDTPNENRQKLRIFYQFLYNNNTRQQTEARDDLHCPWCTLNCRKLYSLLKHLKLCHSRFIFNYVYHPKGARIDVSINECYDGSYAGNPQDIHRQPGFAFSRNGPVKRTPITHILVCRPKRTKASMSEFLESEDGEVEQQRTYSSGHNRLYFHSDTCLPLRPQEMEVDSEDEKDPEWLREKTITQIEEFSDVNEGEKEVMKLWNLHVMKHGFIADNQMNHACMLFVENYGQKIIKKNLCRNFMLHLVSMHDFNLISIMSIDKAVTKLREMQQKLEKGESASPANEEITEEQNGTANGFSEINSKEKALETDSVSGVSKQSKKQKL

By IC50 is commonly meant the point on the concentration scale where inhibition reaches its midpoint. For `CN(C)c1ccc(-c2cnc(NCc3c(F)ccc4c3CCO4)n3cncc23)cn1` [Example 41, 8-(6-(dimethylamino)pyridin-3-yl)-N-((5-fluoro-2,3-dihydrobenzofuran-4-yl)methyl)imidazo[1,5-c]pyrimidin-5-amine], the IC50 at EED (1-441)-His protein is 41.2 nM; in experiment [1], 14.6 nM; in experiment [2], 51.2 nM.
`Cc1cc(S(C)(=O)=O)ccc1-c1cnc(NCc2c(F)ccc3c2CCO3)n2cncc12` [Example 42, N-((5-fluoro-2,3-dihydrobenzofuran-4-yl)methyl)-8-(2-methyl-4-(methylsulfonyl)phenyl)imidazo[1,5-c]pyrimidin-5-amine]: the values for the IC50 (on EED (1-441)-His protein; in experiment [1]; in experiment [2]) were 10.4 nM, 8.5 nM and 79.5 nM, respectively.
On the same counts, the results for `Cc1ccc(-c2cnc(NCc3c(F)ccc4c3CCO4)n3cncc23)c(C)n1` [Example 43, 8-(2,6-dimethylpyridin-3-yl)-N-((5-fluoro-2,3-dihydrobenzofuran-4-yl)methyl)imidazo[1,5-c]pyrimidin-5-amine] are 10.3 nM, 12.6 nM and 50.9 nM.
For `OCCNc1ncc(-c2cnc(NCc3c(F)ccc4c3CCO4)n3cncc23)cn1` [Example 44, 2-((5-(5-(((5-fluoro-2,3-dihydrobenzofuran-4-yl)methyl)amino)imidazo[1,5-c]pyrimidin-8-yl)pyrimidin-2-yl)amino)ethan-1-ol], in that order: 8.6 nM, 19.5 nM and 64.5 nM.
On the same counts, the results for `Cc1cc(-c2cnc(NCc3c(F)ccc4c3CCO4)n3cncc23)n(C)n1` [Example 45, 8-(1,3-dimethyl-1H-pyrazol-5-yl)-N-((5-fluoro-2,3-dihydrobenzofuran-4-yl)methyl)imidazo[1,5-c]pyrimidin-5-amine] are 5.1 nM, 8.4 nM and 17.9 nM.
Consider `Cc1nn(C)c(C)c1-c1cnc(NCc2c(F)ccc3c2CCO3)n2cncc12` [Example 46, N-((5-fluoro-2,3-dihydrobenzofuran-4-yl)methyl)-8-(1,3,5-trimethyl-1H-pyrazol-4-yl)imidazo[1,5-c]pyrimidin-5-amine], for which the results for the IC50 (on EED (1-441)-His protein; in experiment [1]; in experiment [2]) were 18.4 nM, 22.8 nM and 112 nM, respectively.
For `Cc1ncncc1-c1cnc(NCc2c(F)ccc3c2CCO3)n2cncc12` [Example 47, N-((5-fluoro-2,3-dihydrobenzofuran-4-yl)methyl)-8-(4-methylpyrimidin-5-yl)imidazo[1,5-c]pyrimidin-5-amine], in that order: 8.1 nM, 14.3 nM and 42.4 nM.
For `Cc1cc(-c2cnc(NCc3c(F)ccc4c3CCO4)n3cncc23)ccc1S(C)(=O)=O` [Example 48, N-((5-fluoro-2,3-dihydrobenzofuran-4-yl)methyl)-8-(3-methyl-4-(methylsulfonyl)phenyl)imidazo[1,5-c]pyrimidin-5-amine], in that order: 10.5 nM, 16.4 nM and 34.1 nM.
For `Cc1nn(CCO)c(C)c1-c1cnc(NCc2c(F)ccc3c2CCO3)n2cncc12` [Example 49, 2-(4-(5-(((5-fluoro-2,3-dihydrobenzofuran-4-yl)methyl)amino)imidazo[1,5-c]pyrimidin-8-yl)-3,5-dimethyl-1H-pyrazol-1-yl)ethan-1-ol], in that order: 7.9 nM, 13.5 nM and 20.4 nM.
Take `Cc1ncc(-c2cnc(NCc3c(F)ccc4c3CCO4)n3cncc23)cn1` [Example 50, N-((5-fluoro-2,3-dihydrobenzofuran-4-yl)methyl)-8-(2-methylpyrimidin-5-yl)imidazo[1,5-c]pyrimidin-5-amine]: the IC50 amounted to 7.1 nM on EED (1-441)-His protein, 16.2 nM in experiment [1] and 74.2 nM in experiment [2].

Values taken from patent publication US10676479B2, “Imidazolepyridine compounds and uses thereof” (Novartis AG, priority 2016, dated 2020).
